In US7858630B2, “D3 and 5-HT2A receptor modulators” (Hoffmann-La Roche Inc., priority 2008, dated 2010):

Legend:
[1] = biological target: T1, human serotonin 5-HT2A receptor (Homo sapiens, UniProt P28223); experiment: Radioligand binding ([3H]-ketanserin) to membranes of HEK-293 EBNA cells expressing human 5-HT2A receptor; conditions: 1.1 nM [3H]-ketanserin, HEK-293 EBNA membranes, 1 h at RT
T1 construct: expressed in transfected cells; host or cells: HEK-293 EBNA cells, transient transfection; membrane preparation
Procedure: (§1) The ability of the compounds to bind to the 5-HT2A, D3 and D2 receptors was determined using radioligand binding to cloned receptors selectively expressed in HEK-293 EBNA cells.
(§2) Membrane Preparation for Human D2, Human D3 and Human 5-HT2A Receptors
(§3) HEK-293 EBNA cells were transiently transfected with expression plasmids encoding for the human D2 or D3 dopamine- or for the human 5-HT2A serotonin receptor, respectively. The cells were harvested 48 h post-transfection, washed three times with cold PBS and stored at −80° C. prior to use. The pellet was suspended in cold 50 mM Tris-HCl buffer containing 10 mM EDTA (pH 7.4) and homogenized with a Polytron (Kinematica AG, Basel, Switzerland) for 20-30 sec at 12.000 rpm. After centrifugation at 48.000×g for 30 min at 4° C., the pellet was resuspended in cold 10 mM Tris-HCl buffer containing 0.1 mM EDTA (pH 7.4), homogenized, and centrifuged as above. This pellet was further resuspended in a smaller volume of ice cold 10 mM Tris-HCl buffer containing 0.1 mM EDTA (pH 7.4) and homogenized with a Polytron for 20-30 sec at 12.000 rpm. The protein content of this homogenate was determined with the Bio-Rad (Bradford) Protein Assay (Biorad Laboratories GmbH, München, Germany) according to the instructions of the manufacturer using gamma globulin as the standard. This homogenate was stored at −80° C. in aliquots and thawed immediately prior to use.
(§4) Radioligand Binding Assay Conditions
(§5) Aliquots of membrane preparations were thawed at RT, resupended in assay buffer (D2, D3: 50 mM Tris-HCl, 120 mM NaCl, 5 mM MgCl2, 1 mM EDTA, 5 mM KCl, 1.5 mM CaCl2, pH=7.4; 5-HT2A: 50 mM Tris-HCl, 10 mM MgCl2, 1 mM EGTA, pH=7.4), homogenized with a Polytron for 20-30 sec at 12.000 rpm and adjusted to a final concentration of approximately 7.5 μg protein/well (D2, D3) and 15 μg protein/well (5-HT2A), respectively.
(§6) The binding affinity (Ki) of the compounds was determined using radioligand binding. Membranes were incubated in a total volume of 200 μl with a fixed concentration of radioligand (final concentration approximately 0.7 nM [^3H]-spiperone for D2, 0.5 nM [^3H]-spiperone for D3, and 1.1 nM [^3H]-ketanserin for 5-HT2A) and ten concentrations of test compound in ranging between 10 μM-0.1 nM for 1 h at RT. At the end of the incubation, the reaction mixtures were filtered on to unifilter 96-well white microplates with bonded GF/C filters (Packard BioScience, Zurich, Switzerland; preincubated for 1 h in 0.1% polyethylenimine (PEI) in assay buffer) with a Filtermate 196 harvester (Packard BioScience) and washed 3 times with cold assay buffer. The nonspecific binding was determined with equally composed reaction mixtures in the presence of 10 μM unlabelled spiperone. Per well 45 μl of Microscint 40 (Perkin Elmer, Schwerzenbach, Switzerland) was added, plates for sealed, shaken for 20 min and counted for 3 min on a Topcount Microplate Scintillation Counter (Canberra Packard SA, Zurich, Switzerland) with quenching correction.
(§7) The CPM value for each duplicate of a concentration of competing compound was averaged (y1), then the % specific binding was calculated according to the equation (((y1−non-specific)/(total binding-non-specific))×100). Graphs were plotted with the % specific binding using XLfit, a curve fitting program that iteratively plots the data using Levenburg Marquardt algorithm. The single site competition analysis equation used was y=A+((B−A)/(1+((x/C)^D))), where y is the % specific binding, A is the minimum y, B is the maximum y, C is the IC50, x is the log10 of the concentration of the competing compound and D is the slope of the curve (the Hill Coefficient). From these curves the IC50 (inhibition concentration at which 50% specific binding of the radioligand was displaced) and Hill coefficient were determined. […]

[2] = biological target: T2, human dopamine D2 receptor (Homo sapiens, UniProt P14416); experiment: Radioligand binding ([3H]-spiperone) to membranes of HEK-293 EBNA cells expressing human D2 receptor; conditions: human D2, 0.7 nM [3H]-spiperone, HEK-293 EBNA membranes, 1 h at RT
T2 construct: expressed in transfected cells; host or cells: HEK-293 EBNA cells, transient transfection; membrane preparation
Procedure: as §1, §2, §3, §4, §5, §6, §7

[3] = biological target: T3, human dopamine D3 receptor (Homo sapiens, UniProt P35462); experiment: Radioligand binding ([3H]-spiperone) to membranes of HEK-293 EBNA cells expressing human D3 receptor; conditions: human D3, 0.5 nM [3H]-spiperone, HEK-293 EBNA membranes, 1 h at RT
T3 construct: expressed in transfected cells; host or cells: HEK-293 EBNA cells, transient transfection; membrane preparation
Procedure: as §1, §2, §3, §4, §5, §6, §7

T2 sequence (P14416 whole entry): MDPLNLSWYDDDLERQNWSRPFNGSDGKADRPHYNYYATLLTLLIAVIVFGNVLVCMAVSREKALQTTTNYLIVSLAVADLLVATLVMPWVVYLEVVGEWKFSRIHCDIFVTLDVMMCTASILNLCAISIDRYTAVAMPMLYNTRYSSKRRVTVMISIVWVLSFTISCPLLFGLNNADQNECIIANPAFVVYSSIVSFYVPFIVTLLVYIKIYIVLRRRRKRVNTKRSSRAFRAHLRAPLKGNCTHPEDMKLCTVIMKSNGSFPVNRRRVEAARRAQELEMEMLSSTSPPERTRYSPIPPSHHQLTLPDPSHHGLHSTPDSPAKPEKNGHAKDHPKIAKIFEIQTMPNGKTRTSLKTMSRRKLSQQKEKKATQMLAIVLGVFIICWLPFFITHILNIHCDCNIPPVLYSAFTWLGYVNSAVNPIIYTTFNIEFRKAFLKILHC
T1 sequence (P28223 whole entry): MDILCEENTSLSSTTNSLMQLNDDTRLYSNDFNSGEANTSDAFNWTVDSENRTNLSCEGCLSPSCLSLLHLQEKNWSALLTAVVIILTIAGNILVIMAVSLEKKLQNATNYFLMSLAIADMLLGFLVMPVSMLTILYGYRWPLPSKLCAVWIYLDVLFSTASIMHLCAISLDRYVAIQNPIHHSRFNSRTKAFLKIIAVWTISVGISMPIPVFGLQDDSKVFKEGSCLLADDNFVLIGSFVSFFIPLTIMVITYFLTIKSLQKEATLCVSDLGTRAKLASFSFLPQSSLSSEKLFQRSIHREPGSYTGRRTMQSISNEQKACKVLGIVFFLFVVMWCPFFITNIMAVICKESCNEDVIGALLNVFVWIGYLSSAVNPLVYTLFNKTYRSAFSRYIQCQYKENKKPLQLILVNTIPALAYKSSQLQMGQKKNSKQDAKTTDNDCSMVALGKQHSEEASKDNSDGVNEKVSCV
T3 sequence (P35462 whole entry): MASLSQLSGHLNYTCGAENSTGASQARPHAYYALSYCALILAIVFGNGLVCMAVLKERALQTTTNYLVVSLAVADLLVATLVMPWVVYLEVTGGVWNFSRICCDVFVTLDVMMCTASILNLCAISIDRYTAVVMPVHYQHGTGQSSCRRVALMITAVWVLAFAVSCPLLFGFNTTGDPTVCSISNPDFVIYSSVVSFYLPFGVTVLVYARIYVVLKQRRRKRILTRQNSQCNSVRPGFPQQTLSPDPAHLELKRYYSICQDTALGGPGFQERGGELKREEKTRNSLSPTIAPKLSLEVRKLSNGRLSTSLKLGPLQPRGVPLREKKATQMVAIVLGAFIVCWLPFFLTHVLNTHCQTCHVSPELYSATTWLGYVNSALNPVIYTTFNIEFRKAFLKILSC

SMILES | Ki [1] | Ki [2] | Ki [3]
CC(C)OC1CCC(CC(=O)N[C@H]2CC[C@H](CCN3CCN(c4noc5ccc(F)cc45)CC3)CC2)CC1 (mixture of isomers) [Example 10, N-trans-(4-{2-[4-(5-Fluoro-benzo[d]isoxazol-3-yl)-piperazin-1-yl]-ethyl}-cyclohexyl)-2-(4-isopropoxy-cyclohexyl)-acetamide] | 10.4 nM | 11500 nM | 6.6 nM
CC(C)OC1CCC(CC(=O)N[C@H]2CC[C@H](CCN3CCN(c4noc5cc(Cl)ccc45)CC3)CC2)CC1 (mixture of isomers) [Example 51, N-trans-(4-{2-[4-(6-Chloro-benzo[d]isoxazol-3-yl)-piperazin-1-yl]-ethyl}-cyclohexyl)-2-(4-isopropoxy-cyclohexyl)-acetamide] | 3.37 nM | 3020 nM | 10.4 nM
CC1(C)CC(CC(=O)N[C@H]2CC[C@H](CCN3CCN(c4noc5ccc(F)cc45)CC3)CC2)CCO1 (mixture of isomers) [Example 18, Rac-2-(2,2-Dimethyl-tetrahydro-pyran-4-yl)-N-trans-(4-{2-[4-(5-fluoro-benzo[d]isoxazol-3-yl)-piperazin-1-yl]-ethyl}-cyclohexyl)-acetamide] | 25.2 nM | 891 nM | 12.1 nM
O=C(N[C@H]1CC[C@H](CCN2CCN(c3noc4cc(Cl)ccc34)CC2)CC1)C(O)C(F)(F)F (mixture of isomers) [Example 33, N-trans-(4-{2-[4-(6-Chloro-benzo[d]isoxazol-3-yl)-piperazin-1-yl]-ethyl}-cyclohexyl)-rac-3,3,3-trifluoro-2-hydroxy-propionamide] | 12.4 nM | 362 nM | 14.8 nM
CO[C@@H]1CC[C@@H](CC(=O)N[C@H]2CC[C@H](CCN3CCN(c4noc5ccccc45)CC3)CC2)C1 (relative stereo) [Example 3, N-trans-{4-[2-(4-Benzo[d]isoxazol-3-yl-piperazin-1-yl)-ethyl]-cyclohexyl]-2-trans-(3-methoxy-cyclopentyl)-acetamide] | 482 nM | 355 nM | 13.9 nM
CO[C@H]1CC[C@H](CC(=O)N[C@H]2CC[C@H](CCN3CCN(c4noc5cc(Cl)ccc45)CC3)CC2)C1 (relative stereo) [Example 36, N-trans-(4-{2-[4-(6-Chloro-benzo[d]isoxazol-3-yl)-piperazin-1-yl]-ethyl}-cyclohexyl)-2-trans-(3-methoxy-cyclopentyl)-acetamide] | 2.74 nM | 683 nM | 10.1 nM
CO[C@@H]1CC[C@@H](CC(=O)N[C@H]2CC[C@H](CCN3CCN(c4noc5cc(F)c(F)cc45)CC3)CC2)C1 (relative stereo) [Example 65, N-trans-(4-{2-[4-(5,6-Difluoro-benzo[d]isoxazol-3-yl)-piperazin-1-yl]-ethyl}-cyclohexyl)-2-trans-(3-methoxy-cyclopentyl)-acetamide] | 4.4 nM | 822 nM | 7.67 nM
O=C(CC1C[C@@H]2CC[C@H]1O2)N[C@H]1CC[C@H](CCN2CCN(c3noc4ccc(F)cc34)CC2)CC1 (stereo in doubt) [Example 19, N-trans-(4-{2-[4-(5-Fluoro-benzo[d]isoxazol-3-yl)-piperazin-1-yl]-ethyl}-cyclohexyl)-2-(1R,4S)-7-oxa-bicyclo[2.2.1]hept-2-yl-acetamide] | 20.6 nM | 1020 nM | 36 nM
COCCC(=O)N[C@H]1CC[C@H](CCN2CCN(c3noc4ccccc34)CC2)CC1 [Example 1, N-trans-{4-[2-(4-benzo[d]isoxazol-3-yl-piperazin-1-yl)-ethyl]-cyclohexyl}-3-methoxy-propionamide] | 4.88 nM | 347 nM | 12.1 nM
CC(=O)N[C@H]1CC[C@H](CCN2CCN(c3noc4ccccc34)CC2)CC1 [Example 2, N-trans-{4-[2-(4-benzo[d]isoxazol-3-yl-piperazin-1-yl)-ethyl]-cyclohexyl}-acetamide] | 4.96 nM | 272 nM | 8.88 nM
O=C(CO)N[C@H]1CC[C@H](CCN2CCN(c3noc4ccccc34)CC2)CC1 [Example 4, N-trans-{4-[2-(4-Benzo[d]isoxazol-3-yl-piperazin-1-yl)-ethyl]-cyclohexyl}-2-hydroxy-acetamide] | 3.36 nM | 517 nM | 16.5 nM
COCCC(=O)N[C@H]1CC[C@H](CCN2CCN(c3noc4ccc(F)cc34)CC2)CC1 [Example 5, N-trans-(4-{2-{4-(5-Fluoro-benzo[d]isoxazol-3-yl)-piperazin-1-yl]-ethyl}-cyclohexyl)-3-methoxy-propionamide] | 31.6 nM | 725 nM | 2.56 nM
CO[C@H]1CC[C@H](CC(=O)N[C@H]2CC[C@H](CCN3CCN(c4noc5ccc(F)cc45)CC3)CC2)CC1 [Example 6, N-trans-(4-{2-[4-(5-Fluoro-benzo[d]isoxazol-3-yl)-piperazin-1-yl]-ethyl}-cyclohexyl)-2-trans-(4-methoxy-cyclohexyl)-acetamide] | 26.3 nM | 11800 nM | 6.44 nM
O=C(N[C@H]1CC[C@H](CCN2CCN(c3noc4ccc(F)cc34)CC2)CC1)C1CCOCC1 [Example 7, Tetrahydro-pyran-4-carboxylic acid-trans-(4-{2-[4-(5-fluoro-benzo[d]isoxazol-3-yl)-piperazin-1-yl]-ethyl}-cyclohexyl)-amide] | 13.8 nM | 654 nM | 11.6 nM
O=C(CC1CCOCC1)N[C@H]1CC[C@H](CCN2CCN(c3noc4ccc(F)cc34)CC2)CC1 [Example 8, N-trans-(4-{2-[4-(5-Fluoro-benzo[d]isoxazol-3-yl)-piperazin-1-yl]-ethyl}-cyclohexyl)-2-(tetrahydro-pyran-4-yl)-acetamide] | 27.2 nM | 1710 nM | 7.71 nM
COCC(=O)N[C@H]1CC[C@H](CCN2CCN(c3noc4ccc(F)cc34)CC2)CC1 [Example 9, N-trans-(4-{2-[4-(5-Fluoro-benzo[d]isoxazol-3-yl)-piperazin-1-yl]-ethyl}-cyclohexyl)-2-methoxy-acetamide] | 23.3 nM | 1860 nM | 7.49 nM
CC(C)(O)CC(=O)N[C@H]1CC[C@H](CCN2CCN(c3noc4ccc(F)cc34)CC2)CC1 [Example 11, N-trans-(4-{2-[4-(5-Fluoro-benzo[d]isoxazol-3-yl)-piperazin-1-yl]-ethyl}-cyclohexyl)-3-hydroxy-3-methyl-butyramide] | 24 nM | 482 nM | 4.82 nM
CCOCC(=O)N[C@H]1CC[C@H](CCN2CCN(c3noc4ccc(F)cc34)CC2)CC1 [Example 12, 2-Ethoxy-N-trans-(4-{2-[4-(5-fluoro-benzo[d]isoxazol-3-yl)-piperazin-1-yl]-ethyl}-cyclohexyl)-acetamide] | 23.5 nM | 1390 nM | 15.6 nM
O=C(CC(F)(F)F)N[C@H]1CC[C@H](CCN2CCN(c3noc4cc(F)c(Cl)cc34)CC2)CC1 [Example 93, N-trans-(4-{2-[4-(5-Chloro-6-fluoro-benzo[d]isoxazol-3-yl)-piperazin-1-yl]-ethyl}-cyclohexyl)-3,3,3-trifluoro-propionamide] | 6 nM | – | 1.96 nM
